# Test results: the supplement of paper PMC11451515
# Tested on: NOMO1
# Experiment: cell viability relative to DMSO control; higher = less cytotoxic
# Settings: 48 h
# How it was run: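 Library compounds in DMSO were pin-dosed in an 11-point threefold series (47 μM to 0.79 nM) onto leukemia cells in 1536-well plates (5 μl). Plates held 500 cells/well of NOMO1 or SEM or 1000 cells/well of P12-Ichikawa, each adapted for at least four passages in each medium. Luminescence was read with CellTiter-Glo One after 48 h at 37°C. Viability means the per-plate percentage relative to DMSO wells, using cell-free wells as background.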
# [1] = HPLM + 10% dialyzed FBS, 0.000781 µM
# [2] = HPLM + 10% dialyzed FBS, 0.00234 µM
# [3] = HPLM + 10% dialyzed FBS, 0.00702 µM
# [4] = HPLM + 10% dialyzed FBS, 0.0211 µM
# [5] = HPLM + 10% dialyzed FBS, 0.0632 µM
# [6] = HPLM + 10% dialyzed FBS, 0.19 µM
# [7] = HPLM + 10% dialyzed FBS, 0.569 µM
# [8] = HPLM + 10% dialyzed FBS, 1.71 µM
# [9] = HPLM + 10% dialyzed FBS, 5.12 µM
# [10] = HPLM + 10% dialyzed FBS, 15.4 µM
# [11] = HPLM + 10% dialyzed FBS, 46.1 µM
# [12] = RPMI 5 mM glucose + 10% FBS, 0.000781 µM
# [13] = RPMI 5 mM glucose + 10% FBS, 0.00234 µM
# [14] = RPMI 5 mM glucose + 10% FBS, 0.00702 µM
# [15] = RPMI 5 mM glucose + 10% FBS, 0.0211 µM
# [16] = RPMI 5 mM glucose + 10% FBS, 0.0632 µM
# [17] = RPMI 5 mM glucose + 10% FBS, 0.19 µM
# [18] = RPMI 5 mM glucose + 10% FBS, 0.569 µM
# [19] = RPMI 5 mM glucose + 10% FBS, 1.71 µM
# [20] = RPMI 5 mM glucose + 10% FBS, 5.12 µM
# [21] = RPMI 5 mM glucose + 10% FBS, 15.4 µM
# [22] = RPMI 5 mM glucose + 10% FBS, 46.1 µM
# [23] = RPMI 5 mM glucose + 10% dialyzed FBS, 0.000781 µM
# [24] = RPMI 5 mM glucose + 10% dialyzed FBS, 0.00234 µM
# [25] = RPMI 5 mM glucose + 10% dialyzed FBS, 0.00702 µM
# [26] = RPMI 5 mM glucose + 10% dialyzed FBS, 0.0211 µM
# [27] = RPMI 5 mM glucose + 10% dialyzed FBS, 0.0632 µM
# [28] = RPMI 5 mM glucose + 10% dialyzed FBS, 0.19 µM
# [29] = RPMI 5 mM glucose + 10% dialyzed FBS, 0.569 µM
# [30] = RPMI 5 mM glucose + 10% dialyzed FBS, 1.71 µM
# [31] = RPMI 5 mM glucose + 10% dialyzed FBS, 5.12 µM
# [32] = RPMI 5 mM glucose + 10% dialyzed FBS, 15.4 µM
# [33] = RPMI 5 mM glucose + 10% dialyzed FBS, 46.1 µM
SMILES,cell viability [1] [%],cell viability [2] [%],cell viability [3] [%],cell viability [4] [%],cell viability [5] [%],cell viability [6] [%],cell viability [7] [%],cell viability [8] [%],cell viability [9] [%],cell viability [10] [%],cell viability [11] [%],cell viability [12] [%],cell viability [13] [%],cell viability [14] [%],cell viability [15] [%],cell viability [16] [%],cell viability [17] [%],cell viability [18] [%],cell viability [19] [%],cell viability [20] [%],cell viability [21] [%],cell viability [22] [%],cell viability [23] [%],cell viability [24] [%],cell viability [25] [%],cell viability [26] [%],cell viability [27] [%],cell viability [28] [%],cell viability [29] [%],cell viability [30] [%],cell viability [31] [%],cell viability [32] [%],cell viability [33] [%]
C\C1=C(\C=C(C#N)/C(=O)N1)C2=C[N]3C=CN=C3C=C2,69.8,82.7,88.2,79.1,80.9,79.9,83.7,89.3,97.9,94.4,93,85.2,82.2,80.6,80.9,84.5,80.1,94.5,72.7,81.1,84.8,78.9,78.8,81.1,88.1,83.4,84.2,84.5,90.2,92,91.3,85.3,74.6
N[C@H](CSC(c1ccccc1)(c1ccccc1)c1ccccc1)C(=O)O,108,114,133,135,116,108,115,125,120,129,99.6,121,113,126,131,123,118,138,139,114,115,106,106,116,117,129,131,127,134,126,108,109,116
C/C=C(/C)C(=O)O[C@H]1C(C)=C[C@]23C(=O)[C@@H](C=C(CO)[C@@H](O)[C@]12O)[C@H]1[C@@H](C[C@H]3C)C1(C)C,119,127,114,112,93.5,69,66.4,64.7,60.6,61.5,39.3,121,128,121,108,96,79.1,67.8,65.9,66.3,69.4,51.7,–,–,–,–,–,–,–,–,–,–,–
C#C[C@]1(O)CC[C@H]2[C@@H]3CCc4cc(O)ccc4[C@H]3CC[C@@]21C,101,116,104,104,102,105,109,96,97.9,68,51.3,97.7,93.9,99.9,95.9,105,91.9,87,91.5,89,85,80.4,97.2,103,87.4,101,99.4,106,92.4,78.3,89.1,71.3,48.4
CN(NC(=O)CC(=O)NN(C)C(=S)c1ccccc1)C(=S)c1ccccc1,85.2,101,91.7,111,52.3,21.7,3.16,4.21,4.19,4.38,6.98,86,80.2,97.5,95.2,53.4,16.7,3.21,3.39,4.47,6.75,15.8,83.4,89.2,82.1,94.6,39,10.7,2.4,2.7,3.68,2.79,9.44
CC(C)C[C@H](NC(=O)[C@H](CCc1ccccc1)NC(=O)CN1CCOCC1)C(=O)N[C@@H](Cc1ccccc1)C(=O)N[C@@H](CC(C)C)C(=O)[C@@]1(C)CO1,94.7,95.3,103,99.4,7.57,8.63,5.74,4.23,1.47,0.357,0.4,77.8,88.9,90,83.9,6.13,6.37,4.68,3.7,2.13,-0.195,-0.384,90.9,93.3,98.5,92,8.53,8.08,5.45,3.98,2.7,0.526,-0.204
S=P(N1CC1)(N1CC1)N1CC1,107,105,99,104,98.5,98.6,110,97.3,92.4,104,62.6,92.8,102,95.7,96.4,103,95.7,92.7,95.5,101,90.2,89.8,101,105,95.4,91.4,104,99.6,116,98.7,95.5,98.3,92.4
C[C@]1(c2nc3c(C(N)=O)cccc3[nH]2)CCCN1,70.8,69.6,84,82.2,80.8,88.9,84.2,74.6,67.1,93,31.4,65.2,80.4,72.5,79.5,76.3,76.3,85.6,72,68.9,81.3,23,62.8,77,76.8,82.3,87.5,93.7,89.6,90.6,73.1,77.4,26.1
